# Laboratory results: ChEMBL document CHEMBL4382277, “Novel Fluorescence Competition Assay for Retinoic Acid Binding Proteins” (ACS Med Chem Lett, 2018)
# Activity calls are given as the source filed them. No cut-off for these calls is given here.
# Biological target: T1, Cellular retinoic acid-binding protein 2 (Homo sapiens) (UniProt P29373)
# T1 sequence (whole entry): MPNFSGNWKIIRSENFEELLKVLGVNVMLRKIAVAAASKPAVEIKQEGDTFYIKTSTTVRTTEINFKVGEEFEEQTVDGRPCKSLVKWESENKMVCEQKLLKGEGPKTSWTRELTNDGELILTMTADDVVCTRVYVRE
# Assay: Displacement of DC271 from CRABP2 (unknown origin) at 200 to 1600 nM by fluorescence assay
row,SMILES,inhibition
1,CC1=C(/C=C/C(C)=C/C=C/C(C)=C\C(=O)O)C(C)(C)CCC1,inactive
2,CC1=C(/C=C/C(C)=C/C=C/C(C)=C/C(=O)O)C(C)(C)CCC1,Active
3,CC1=C(/C=C/C(C)=C\C=C\C(C)=C\C(=O)O)C(C)(C)CCC1,Active
4,O=C(O)c1ccccc1,inactive
5,c1ccc2ncccc2c1,inactive

# Biological target: T2, Cellular retinoic acid-binding protein 2 (Homo sapiens, UniProt P29373)
# T2 sequence (P29373 whole entry): T1 sequence (whole entry)
# Assay: Displacement of DC271 from CRABP2 (unknown origin) by fluorescence assay
row,SMILES,Kd [nM]
1,CC1(C)CCC(C)(C)c2cc(C#Cc3ccc(C(=O)O)cc3)ccc21,160
